The values below come from patent US20250090510A1, “eIF4G1-eIF1 INHIBITORS AND USE THEREOF” (YEDA RESEARCH AND DEVELOPMENT CO. LTD., priority 2022, published 2025).

The test system of the experiment is HEK293T cells. Nature of the experiment: TCP-seq (translation complex profiling) of 48S footprints. The settings on record: 5 μM, one hour. The experiment is classed as cell-based, human. The source says:
FIGS. 9A-H: Inhibition of eIF1-eIF4G1 leads to 48S instability and scanning defect (9A) Polysome profiles of HEK293T cells treated with DMSO or i14G1-12 after crosslinking with formaldehyde, lysis and Rnase I digestion. The grey layer represents the fractions corresponding to the 40S ribosome used for the TCP-seq library preparation. (9B) Heatmap representing the log 2 mean of the relative number of reads mapping to the individual tRNAs in i14G1-12 over DMSO (n=3). The number of reads was normalized to the codon frequency in the human transcriptome. (9C) Volcano plot showing log 2 fold change (FC) of the abundance of each tRNAs comparing i14G1-12 over DMSO with FDR <0.05 and a log 2 FC threshold of 1. (9D) Histograms showing the relative number of reads mapping to mRNA in DMSO vs. i14G1-12. (9E) Metagene plots of normalized ribosome footprints (RPFs) counts on leader region. Numbers indicate the slope of the regression lines. (9F) Volcano plot showing log 2 fold change of the differential initiation analysis in i14G1-12 over DMSO. […] (9G) Bar chart of the relative number of reads mapping to each mRNA feature in DMSO and i14G-12.
FIGS. 10A-J: Definition of leaky scanning and its regulation by specific mRNA features and eIF1-eIF4G1. (10A) Metagene plots of normalized ribosome footprints (RPFs) counts on CDS region. (10B) Scatter plot representing the leaky scanning score (LS) of transcripts in i14G1-12 versus DMSO. Transcripts with a significant LS (FDR <0.05) in DMSO and i14G1-12 are highlighted. […] (10D) Boxplots of the leaky scanning score in DMSO and in i14G1-12. […] (10F) Plot of the mean GC content in a 20 nt window around the start codon of leaky and non-leaky transcripts in DMSO and i14G1-12. (10G) Boxplot representing the log 5′ UTR length of leaky and non-leaky transcripts in DMSO and i14G1-12.
HEK293T cells were grown to 90% confluence at 37° C. in a humidified incubator supplemented with 5% CO2. Cells were treated with DMSO or 5 μM i14G1-12 for 1 hour. After treatment, cells were directly removed from the incubator and treated with 0.15% formaldehyde for 10 min on ice with slow shaking. The reaction was stopped by adding 37.5 mM glycine for 5 minutes. Media was aspirated and the plates were washed with cold PBS. Cells were lysed with fresh lysis buffer (100 mM KCl, 20 mM Tris-HCl pH 8, 1.5 mM MgCl2, 1.5% (v/v) NP-40, 2 mM DTT) supplemented with protease inhibitor for 20 min in a cold room with slow agitation. Lysates were clarified by centrifugation at 20,000 g. RNA amount was quantified by nanodrop. 10% of the lysate was kept and snap freeze for total RNA extraction. Digestion was performed by the addition of 0.0075 U Rnase I per μg of RNA to the lysate for 30 min at room temperature. Digestion was stopped by adding a Super RNase inhibitor (ThermoFischer). Lysates were loaded onto a 5-45% sucrose gradient (100 mM KCl, 20 mM HEPES pH 7, 5 mM MgCl2, 2 mM DTT) and centrifuged at 39000 rpm for two hours and forty-five minutes in an SW41 rotor at 4° C. Gradients were analyzed through a UV lamp (254 nm) and an Absorbance detector while being fractionated in 250 μL fractions using a Foxy Junior Fraction Collector (Isco).
RNA from the undigested extract and the sucrose gradient fractions corresponding to the 40S were extracted by addition of 1 mL or one volume of TRIzol respectively. Samples were heated at 65° C. for 15 minutes and vortexed every five minutes. Extraction was continued by addition of chloroform and alcohol precipitation of the aqueous phase. RNA-seq libraries were prepared with the TruSeq stranded RNA Library Prep (Illumina). TCP-seq libraries were prepared as described herein by selecting footprints reads with a length ranging from 16 nt to 85 nt. Libraries were sequenced at the iGE3 Genomic Platform (UNIGE) on a Hiseq 4000. […]

With `Cn1ccnc1S/C(=C/C=C(C#N)C#N)c1ccc(Cl)cc1` [i14G1-12], under “relative to DMSO”, the “iMet tRNA abundance in 48S fractions” value is “most downregulated tRNA” and the “number of reads mapping to mRNAs” value is listed as “significantly decreased”. The “number of leaky genes (LS >3)” value (DMSO n=637) is 1266 genes. Moreover, the “number of non-leaky genes (LS<−3)” value (DMSO n=1223) worked out at 325 genes. Further, where the note is “log 2 FC threshold 1, FDR 0.05”, the “number of downregulated differentially scanned genes” value is on record as 476 genes and the “number of upregulated differentially scanned genes” value turned out to be 10 genes.
